Measured values: paper PMC4552634, “A New Set of Chemical Starting Points with Plasmodium falciparum Transmission-Blocking Potential for Antimalarial Drug Discovery” (PLoS ONE, 2015)
Where two headings read alike, the source gives them in different places.

Key:
[1] = system: luciferase reaction (BacTiter-Glo); test: Interference assay (inhibition of the BacTiter-Glo luciferase reaction); type: biochemical; set-up: concentration or dose not given beside the values; settings: ATP interference assay
Method: To discard possible false-positive results, we performed an interference assay in parallel. […] […]. The ATP solution was made by dissolving ATP powder (ATP standard from the ATPlite 1 step assay kit, reference 6016731, Perkin Elmer) in culture medium. The positive control used was the Luciferase Inhibitor I Calbiochem (Merck, 119113) at 100 μM.

[2] = system: P. falciparum asexual stages; settings: TCAMS data, cited from earlier work
[3] = system: P. falciparum stage V gametocytes; test: Gametocytocidal ATP bioluminescence assay (single point 5 μM and 1 μM, dose-response); type: cell-based, Plasmodium falciparum; settings: for Ratio IC50 HepG2/IC50 P. falciparum: IC50 HepG2 divided by IC50 P. falciparum gametocytes
Method: Purified stage IV-V gametocytes were obtained as previously described [10]. Single point ATP bioluminescence assay and dose–response of positive hits was determined in accordance with the previously published protocol [10].

[4] = system: HepG2 cells; test: Cytotoxicity in HepG2 cells (intracellular ATP, ATPlite, 48 h); type: cell-based, human; settings: HepG2 cells; IC50 per ratio column head; unit inferred
[5] = asexual stages, read-out: IC50 asexual
[6] = Plasmodium falciparum, P. falciparum gametocytes, average, read-out: IC50 Pf Gametocytes average, IC50 (µM) average
[7] = sexual stages (gametocytes), dose-response, read-out: IC50 sexual
[8] = P. falciparum gametocytes, average, read-out: IC50 Pf Gametocytes average, IC50 (µM) average

SMILES | % Control luminiscence [1] [%] | IC50 [2, 5] [µM] | IC50 [3, 6] [µM] | IC50 [3, 7] [µM] | Ratio IC50 HepG2/IC50 P. falciparum [3] | IC50 [3, 8] [µM] | IC50 [4] [nM] | IC50 ([2]; P. falciparum asexual stages, read-out: IC50 (µM) Pf asexual stages) [µM] | IC50 ([3]; Plasmodium falciparum, sexual stages (gametocytes), dose-response, read-out: IC50 sexual) [µM]
Cc1ccc(Nc2nc(-c3ccccn3)cs2)nc1 [TCMDC-125854] | 100 | 0.752 | 0.16 | 0.159 | – | – | – | – | –
C[C@H](Cc1ccc(C[C@@H](C)NC[C@H](O)c2cccc(Cl)c2)cc1)NC[C@H](O)COc1ccccc1 [TCMDC-131549] | 100 | 1.17 | – | 0.923 | 5 | 0.92 | 4700 | – | –
C[C@H](Cc1ccc(OCCCCCOc2ccc(C[C@@H](C)NC[C@H](O)c3cccc(Cl)c3)cc2)cc1)NC[C@H](O)c1cccc(Cl)c1 [TCMDC-131563] | 100 | 0.19 | – | – | 3.25 | 0.55 | 1790 | – | –
CCc1c(CCNCCCCCCNCCc2ccc([N+](=O)[O-])cc2)ccc(OC)c1OC [TCMDC-132066] | 100 | 0.727 | – | 0.537 | 12 | 0.54 | 6670 | – | –
COc1ccc(CNC2Cc3ccccc3C2)cc1-c1ccc(S(=O)(=O)NCCN2CCCC2)cc1 [TCMDC-132248] | 100 | 0.582 | – | 1.38 | 6 | 1.38 | 8280 | – | –
Cc1cc(-c2cccc(CNC3CCCC3)c2)ccc1S(=O)(=O)NCCN1CCCC1 [TCMDC-132279] | 100 | 1.24 | – | 1.24 | 6 | 1.24 | 7500 | – | –
COc1ccc(CNCc2ccc(F)cc2)cc1-c1ccc(S(=O)(=O)NCCN2CCCC2)cc1 [TCMDC-132294] | 98 | 1.04 | – | 1.21 | 5.36 | 1.21 | 6500 | – | –
COc1ccc(CNCCc2cccs2)cc1-c1cccc(S(=O)(=O)NCCN2CCCC2)c1 [TCMDC-132479] | 94 | 0.877 | – | 1.68 | 7 | 1.68 | 11400 | – | –
O=C(Nc1ccc(N2CCNCC2)cc1)c1ccn2ncc(-c3cccc(Cl)c3)c2n1 [TCMDC-132663] | 95 | 0.922 | – | – | 6.35 | 3.5 | 22200 | – | –
COc1ccc(-c2cc(-c3ccc(S(C)(=O)=O)cc3)cnc2N)cn1 [TCMDC-133351] | 100 | 0.187 | 1.18 | – | – | – | – | 0.19 | 1.18
Nc1ncc(-c2ccc3nccc(-c4ccncc4)c3c2)cc1S(=O)(=O)N1CCOCC1 [TCMDC-134180] | 100 | 0.872 | – | – | >3 | 6.9 | > 25000 | – | –
CN(C)S(=O)(=O)c1cc(-c2ccc3nccc(-c4cccc(S(N)(=O)=O)c4)c3c2)cnc1N [TCMDC-134230] | 100 | 0.251 | – | – | <1.5 | > 10 | 14800 | – | –
Nc1ncc(-c2ccc3nccc(-c4ccncc4)c3c2)cc1S(=O)(=O)N1CCCCC1 [TCMDC-134265] | 100 | 0.581 | – | 2.07 | >12 | 2.07 | > 25000 | – | –
COc1ccc(-c2cnn3ccc(Nc4cc(OC)c(OC)c(OC)c4)nc23)cc1OC [TCMDC-134383] | 100 | 0.65 | – | 1.62 | 8 | 1.62 | 12900 | – | –
COc1ccc2nc(-c3cccc(C)n3)nc(Nc3ccncc3)c2c1 [TCMDC-134670] | 100 | 0.669 | – | – | – | 2.51 | > 25000 | – | –
COCCn1c(-c2cccc(Cl)c2)nn(-c2ccc([N+](=O)[O-])cc2C#N)c1=S [TCMDC-134719] | 97 | 0.178 | – | 2.78 | >9 | 2.78 | > 25000 | – | –
CC(C)(C)OC(=O)NCc1ccc(Nc2nnc(-c3ccc(OCC(=O)NCc4ccc(C(C)(C)C)cc4)c([N+](=O)[O-])c3)o2)cc1 [TCMDC-134991] | 100 | 0.8 | – | – | 4.5 | 0.7 | 3150 | – | –
Fc1ccc(OC2CN(c3nccc(NCc4ccccc4Cl)n3)C2)cc1 [TCMDC-135110] | 98 | 0.898 | – | 2.51 | >10 | 2.51 | > 25000 | – | –
